Measured values: patent US12257287B2, “Glucagon-derived peptide and use thereof” (Tianjin Institute of Pharmaceutical Research Co., Ltd., priority 2018, dated 2025)
≈ marks a conversion by molar mass, not a printed value. Numbered stars: 1 amine (or outer) side, 2 acyl side, 3 side chain; on linkers, the order of the positions; unused ones are H or OH. Square brackets hold non-standard residues; d marks the D form. Side chains are listed from the residue outwards. Peptide text beside a SMILES is read from it. * marks the point of attachment. C18 diacid = O=C(O)CCCCCCCCCCCCCCCCC(=O)*; γGlu = O=C(O)[C@H](CCC(=O)[*:2])N[*:1]; AEEA = NCCOCCOCC(=O)O; Aib = CC(C)(N)C(=O)O

Experiments:
[1] = Short-term administration: food intake and body weight in DIO mice; format: in vivo; conditions: 30 nmol/kg once every 24 h, twice, − decrease; for Rate of change in food intake (%): at 48 hours vs day before administration; for Body weight change: at 48 hours
Protocol: Method: diet-induced obese mice (DIO) with an average body weight of 52.5 g were divided into model control and test groups, 5 mice in each group. The test samples were dissolved in 10 mM PBS of pH7.4, injected once every 24 h at a dose of 30 nmol/kg, and administered twice. The model group was injected with solvent. Changes in food intake and body weight at 48 hours were measured, and the change rates were calculated compared to the day before administration.

GC receptor = target: T1, GC receptor (Homo sapiens, UniProt P47871); assay: GC receptor mediated cAMP production in vitro (HEK293 cells transfected with GC receptor); format: cell-based; conditions: 20 min at 37° C., read-out: GCGR (nM EC50)
T1 construct: expressed in transfected cells; host or cells: HEK293 cells
Source text: The medium was removed, the cells were lysed, and cAMP values were detected referring to the detection method described for the assay kit.

physchem = format: physicochemical
Protocol: 2 mg of the compound was weighed, dissolved in 1 ml of phosphate buffer solutions with different concentrations (10, 20 mM) and different pH values (7.5, 8.0), and centrifuged, and supernatant was taken. The peak area was measured by HPLC (chromatographic column: Aeris widepore XB-C18 3.6 mm, 4.6×150 mm; mobile phase: A: 0.05% TFA, B: 95% acetonitrile; detection wavelength: 214 nm) and compared with a corresponding sample standard solution, and the relative concentration of the test sample solution is calculated.
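For solubility in this document: compound added at 2 mg per mL of phosphate buffer, with the dissolved amount determined in the supernatant.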

T1 sequence (P47871 26-477): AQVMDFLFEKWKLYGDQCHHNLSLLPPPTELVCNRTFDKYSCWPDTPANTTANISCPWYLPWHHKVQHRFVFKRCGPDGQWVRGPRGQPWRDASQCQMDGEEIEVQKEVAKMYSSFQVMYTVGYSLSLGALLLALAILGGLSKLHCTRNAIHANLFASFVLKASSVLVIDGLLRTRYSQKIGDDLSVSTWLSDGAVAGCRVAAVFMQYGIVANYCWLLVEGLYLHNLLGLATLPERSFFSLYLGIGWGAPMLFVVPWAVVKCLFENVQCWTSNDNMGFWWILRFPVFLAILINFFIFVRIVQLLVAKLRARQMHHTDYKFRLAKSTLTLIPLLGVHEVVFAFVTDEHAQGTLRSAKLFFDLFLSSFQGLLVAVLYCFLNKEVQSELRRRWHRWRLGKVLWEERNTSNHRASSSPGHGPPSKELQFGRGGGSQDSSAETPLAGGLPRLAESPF

EC50 (GC receptor) [nM]	solubility (physchem; pH 7.5, Solubility, pH 7.5, 10 mM phosphate buffer) [µg/mL]	solubility (physchem; pH 7.5, Solubility, pH 7.5, 20 mM phosphate buffer) [µg/mL]	solubility (physchem; pH 8, Solubility, pH 8.0, 10 mM phosphate buffer) [µg/mL]	solubility (physchem; pH 8, Solubility, pH 8.0, 20 mM phosphate buffer) [µg/mL]	Structure (SMILES)	Rate of change in food intake (%) [1] [%]	Body weight change [1] [g]
0.026					CC[C@H](C)[C@H](NC(=O)[C@H](Cc1ccccc1)NC(=O)[C@H](CCC(=O)O)NC(=O)[C@H](CCCCNC(=O)COCCOCCNC(=O)COCCOCCNC(=O)CC[C@H](NC(=O)CCCCCCCCCCCCCCCCC(=O)O)C(=O)O)NC(=O)[C@H](C)NC(=O)[C@H](C)NC(=O)[C@H](CCCNC(=N)N)NC(=O)[C@H](CCC(=O)O)NC(=O)[C@H](CCC(=O)O)NC(=O)[C@H](CC(C)C)NC(=O)[C@H](Cc1ccc(O)cc1)NC(=O)[C@H](CCCCN)NC(=O)[C@H](CO)NC(=O)[C@H](Cc1ccc(O)cc1)NC(=O)[C@H](CC(=O)O)NC(=O)[C@H](CO)NC(=O)[C@@H](NC(=O)[C@H](Cc1ccccc1)NC(=O)[C@@H](NC(=O)CNC(=O)[C@H](CCC(N)=O)NC(=O)C(C)(C)NC(=O)[C@@H](N)Cc1c[nH]cn1)[C@@H](C)O)[C@@H](C)O)C(=O)N[C@@H](C)C(=O)N[C@@H](Cc1c[nH]c2ccccc12)C(=O)N[C@@H](CC(C)C)C(=O)N[C@@H](CCC(=O)O)C(=O)N[C@@H](C)C(=O)NCC(=O)NCC(=O)N1CCC[C@H]1C(=O)N[C@@H](CO)C(=O)N[C@@H](CO)C(=O)NCC(N)=O [Compound 28] (H-H[Aib]QGTFTSDYSKYLEERAAK([AEEA-AEEA-γGlu-C18 diacid])EFIAWLEAGGPSSG-NH2; N-terminus assumed)	−49	-1.3
0.069					CC[C@H](C)[C@H](NC(=O)[C@H](Cc1ccccc1)NC(=O)[C@H](CCC(=O)O)NC(=O)[C@H](CCCCN)NC(=O)[C@H](C)NC(=O)[C@H](C)NC(=O)[C@H](CCCNC(=N)N)NC(=O)[C@H](CCC(=O)O)NC(=O)[C@H](CC(=O)O)NC(=O)[C@H](CC(C)C)NC(=O)[C@H](Cc1ccc(O)cc1)NC(=O)[C@H](CCCCN)NC(=O)[C@H](CO)NC(=O)[C@H](CCCCNC(=O)COCCOCCNC(=O)COCCOCCNC(=O)CC[C@H](NC(=O)CCCCCCCCCCCCCCCCC(=O)O)C(=O)O)NC(=O)[C@H](CC(=O)O)NC(=O)[C@H](CO)NC(=O)[C@@H](NC(=O)[C@H](Cc1ccccc1)NC(=O)[C@@H](NC(=O)CNC(=O)[C@H](CCC(N)=O)NC(=O)[C@H](CO)NC(=O)[C@@H](N)Cc1c[nH]cn1)[C@@H](C)O)[C@@H](C)O)C(=O)N[C@@H](C)C(=O)N[C@@H](Cc1c[nH]c2ccccc12)C(=O)N[C@@H](CC(C)C)C(=O)N[C@@H](CCC(=O)O)C(=O)N[C@@H](C)C(=O)NCC(=O)NCC(=O)N1CCC[C@H]1C(=O)N[C@@H](CO)C(=O)N[C@@H](CO)C(=O)NCC(N)=O [Compound 36] (H-HSQGTFTSDK([AEEA-AEEA-γGlu-C18 diacid])SKYLDERAAKEFIAWLEAGGPSSG-NH2; N-terminus assumed)	−46	-1.7
0.156	1170 (≈ 276 µM)	850 (≈ 200 µM)	1630 (≈ 384 µM)	1590 (≈ 375 µM)	CCCCCCCCCCCCCCCC(=O)N[C@@H](CCC(=O)N[C@@H](CCC(=O)NCCCC[C@H](NC(=O)[C@H](C)NC(=O)[C@H](CCCCN)NC(=O)[C@H](CCCNC(=N)N)NC(=O)[C@H](CCC(=O)O)NC(=O)[C@H](CCC(=O)O)NC(=O)[C@H](CC(C)C)NC(=O)[C@H](Cc1ccc(O)cc1)NC(=O)[C@H](CCCCN)NC(=O)[C@H](CO)NC(=O)[C@H](Cc1ccc(O)cc1)NC(=O)[C@H](CC(=O)O)NC(=O)[C@H](CO)NC(=O)[C@@H](NC(=O)[C@H](Cc1ccccc1)NC(=O)[C@@H](NC(=O)CNC(=O)[C@H](CCC(N)=O)NC(=O)C(C)(C)NC(=O)[C@@H](N)Cc1c[nH]cn1)[C@@H](C)O)[C@@H](C)O)C(=O)N[C@@H](CCC(=O)O)C(=O)N[C@@H](Cc1ccccc1)C(=O)N[C@H](C(=O)N[C@@H](CCC(=O)O)C(=O)N[C@@H](Cc1c[nH]c2ccccc12)C(=O)N[C@@H](CC(C)C)C(=O)N[C@@H](CCC(=O)O)C(=O)NCC(=O)NCC(=O)N1CCC[C@H]1C(=O)N[C@@H](CO)C(=O)N[C@@H](CO)C(=O)NCC(N)=O)C(C)C)C(=O)O)C(=O)O [Compound 62] (HELM PEPTIDE1{H.[Aib].Q.G.T.F.T.S.D.Y.S.K.Y.L.E.E.R.K.A.K.E.F.V.E.W.L.E.G.G.P.S.S.G.[am]}|PEPTIDE2{[CCCCCCCCCCCCCCCC(=O)[*:2]].[gGlu].[gGlu]}$PEPTIDE1,PEPTIDE2,20:R3-3:R2$$$V2.0; N-terminus assumed)		
